We go through nine molecules from patent publication US6974824B2, “Kappa opioid receptor ligands” (Research Triangle Institute, priority 2001, dated 2005).

The target in test [1] is delta opioid receptor (UniProt P33533). Nature of the test: Radioligand competitive binding, [3H]DADLE.
Test [2] concerns the target mu opioid receptor (UniProt P33535). Put plainly: Radioligand competitive binding, [3H]DAMGO. The settings on record: read-out: K1 (nM ± SD) μ [3H]DAMGO.
Test [3] addresses T1, kappa opioid receptor (Cavia porcellus, UniProt P41144). Nature of the test: Radioligand competitive binding, [3H]U69,593. The settings on record: for Ki: read-out: K1 (nM ± SD) κ [3H]U69,593, radioligand binding, [3H]U69,593.
Test [4] has as its system kappa opioid receptor. Nature of the test: Radioligand competitive binding, [3H]U69,593. The settings on record: ratio of binding Ki values, Table 1.
The target of test [5] is cloned human kappa opioid receptor (Homo sapiens, UniProt P41145). Nature of the test: Inhibition of U69,593-stimulated [35S]GTP-γ-S binding in cloned human opioid receptors. The settings on record: cloned human functional assay versus binding assay. For orientation: GTPγS resists hydrolysis and so accumulates on activated G proteins.
In test [6] the target is T2, delta opioid receptor (Cavia porcellus, UniProt A0A286XTF2). Nature of the test: biochemical.
Test [7] addresses mu opioid receptor (Cavia porcellus, UniProt A0ACM8Q262). Nature of the test: Inhibition of DAMGO-stimulated [35S]GTP-γ-S binding in guinea pig caudate. The settings on record: read-out: Apparent Functional Ki (nM ± SD) μ DAMGO. In kind it is biochemical.
Test [8] deals with T1, kappa opioid receptor. Nature of the test: Inhibition of U69,593-stimulated [35S]GTP-γ-S binding in guinea pig caudate.
Test [9] concerns the target T2, delta opioid receptor. The settings on record: read-out: Apparent Functional Ki (nM ± SD) δ DADLE; [35S]GTP-γ-S, guinea pig caudate, SNC-80-stimulated (footnote b).
Where [10] appears, read: read-out: K1 (nM ± SD) δ [3H]DADLE; radioligand binding, [3H]DADLE.
[11] abbreviates: radioligand binding, [3H]DADLE; read-out: K1 (nM ± SD) δ [3H]DADLE.

Molecules are shown by their SMILES. Read-outs that look alike come from different tables or passages of the source. Where only a bound is given, the exact number is not on record here.

On to `CC(C)[C@@H](CN1CC[C@@](C)(c2cccc(O)c2)[C@@H](C)C1)NC(=O)[C@H]1Cc2ccccc2CN1` [Compound 16, (3R)-N-((1S)-1-{[(3R,4R)-4-(3-Hydroxyphenyl)-3,4-dimethyl-1-piperidinyl]methyl}-2-methylpropyl)-1,2,3,4-tetrahydro-3-isoquinolinecarboxamide], for which the values for the Ki on delta opioid receptor [1] (setting [10]), at mu opioid receptor [2] and on kappa opioid receptor [3] were above 4900 nM, 775 ± 75 nM and 2.1 nM, respectively. The δ/κ in the test on kappa opioid receptor [4] is recorded as above 2333. Moreover, the μ/κ in the test with kappa opioid receptor [4] came to 369.

With `CC(C)[C@@H](CN1CC[C@@](C)(c2cccc(O)c2)[C@@H](C)C1)NC(=O)[C@@H]1Cc2ccc(O)cc2CN1C` [Compound 18, (3S)-7-Hydroxy-N-((1S)-1-{[(3R,4R)-4-(3-hydroxyphenyl)-3,4-dimethyl-1-piperidinyl]methyl}-2-methylpropyl)-2-methyl-1,2,3,4-tetrahydro-3-isoquinolinecarboxamide], on delta opioid receptor [1] (setting [10]), the Ki was 616 ± 59 nM. Moreover, the Ki on mu opioid receptor [2] came out at 37 ± 1.4 nM. Moreover, at kappa opioid receptor [3] (opioid receptor binding data, kappa), the “potency relative to the reference compound nor-BNI (6)” value came to 20 fold. Further, in the test on kappa opioid receptor [4], the δ/κ is given as 11622 and the μ/κ was determined as 700.

Consider `CC(C)[C@@H](CN1CC[C@@](C)(c2cccc(O)c2)[C@@H](C)C1)NC(=O)[C@H]1Cc2ccc(O)cc2CN1` [Compound 14, (3R)-7-Hydroxy-N-((1S)-1-{[(3R,4R)-4-(3-hydroxyphenyl)-3,4-dimethyl-1-piperidinyl]methyl}-2-methylpropyl)-1,2,3,4-tetrahydro-3-isoquinolinecarboxamide], for which the Ki on delta opioid receptor [1] (setting [11]) was 301 ± 50 nM; on mu opioid receptor [2], 3.73 ± 0.17 nM; at delta opioid receptor [6] it was above 300 nM; on mu opioid receptor [7] it was 2.16 ± 0.75 nM; at kappa opioid receptor [8], 0.02 nM. Besides, the “improvement in kappa receptor Ki compared with the binding assay” value in test [5] is recorded as 53 fold.

Take `CC(C)[C@@H](CN1CC[C@@](C)(c2cccc(O)c2)[C@@H](C)C1)NC[C@H]1Cc2ccc(O)cc2CN1` [Compound 19, (3R)-3-{[((1S)-1-{[(3R,4R)-4-(3-Hydroxyphenyl)-3,4-dimethyl-1-piperidinyl]methyl}-2-methylpropyl)amino]methyl}-1,2,3,4-tetrahydro-7-isoquinolinol]: the values for the Ki at delta opioid receptor [1] (read-out: K1 (nM ± SD) δ [3H]DADLE) and at kappa opioid receptor [3] were 5570 ± 713 nM and 0.63 ± 0.05 nM, respectively.

With `CC(C)[C@@H](CN1CC[C@](C)(c2cccc(O)c2)[C@H](C)C1)NC(=O)[C@H]1Cc2ccc(O)cc2CN1` [Compound 21, (3R)-7-Hydroxy-N-((1S)-1-{[(3S,4S)-4-(3-hydroxyphenyl)-3,4-dimethyl-1-piperidinyl]methyl}-2-methylpropyl)-1,2,3,4-tetrahydro-3-isoquinolinecarboxamide], the Ki came out at 144 ± 15 nM on delta opioid receptor [1] (setting [11]), 138 ± 8 nM at mu opioid receptor [2] and 17.5 ± 2.5 nM on kappa opioid receptor [3].

Regarding `CC(C)[C@@H](CN1CC[C@@](C)(c2cccc(O)c2)[C@@H](C)C1)NC(=O)[C@H]1Cc2ccc(O)cc2CN1C(=O)CN(C)C` [Compound 17, (3R)-2-(N,N-Dimethylglycyl)-7-hydroxy-N-((1S)-1-{[(3R,4R)-4-(3-hydroxyphenyl)-3,4-dimethyl-1-piperidinyl]methyl}-2-methylpropyl)-1,2,3,4-tetrahydro-3-isoquinolinecarboxamide], the values for the Ki at delta opioid receptor [1] (setting [10]), on mu opioid receptor [2] and at kappa opioid receptor [3] were above 3400 nM, 164 ± 10.5 nM and 15 ± 1.2 nM, respectively. The δ/κ with kappa opioid receptor [4] is above 219. Moreover, the μ/κ in the test on kappa opioid receptor [4] was 11.

Consider `CC(C)[C@@H](CN1CC[C@@](C)(c2cccc(O)c2)[C@@H](C)C1)NC[C@H]1Cc2ccc(O)cc2CN1C` [Compound 20, (3R)-3-{[((1S)-1-{[(3R,4R)-4-(3-Hydroxyphenyl)-3,4-dimethyl-1-piperidinyl]methyl}-2-methylpropyl)amino]methyl}-2-methyl-1,2,3,4-tetrahydro-7-isoquinolinol], for which the Ki was 2230 ± 187 nM at delta opioid receptor [1] (setting [11]), 59 ± 2.5 nM on mu opioid receptor [2] and 0.55 ± 0.04 nM on kappa opioid receptor [3]. Moreover, in the test with kappa opioid receptor [4], the δ/κ was 4056. The μ/κ with kappa opioid receptor [4] is 107.

Consider `CC(C)[C@@H](CN1CC[C@@](C)(c2cccc(O)c2)[C@@H](C)C1)NC(=O)[C@@H]1Cc2ccc(O)cc2CN1` [Compound 15, (3S)-7-Hydroxy-N-((1S)-1-{[(3R,4R)-4-(3-hydroxyphenyl)-3,4-dimethyl-1-piperidinyl]methyl}-2-methylpropyl)-1,2,3,4-tetrahydro-3-isoquinolinecarboxamide], for which the Ki at delta opioid receptor [1] (setting [11]) is above 4900 nM; at mu opioid receptor [2], 596 ± 29 nM; on kappa opioid receptor [3], 9.8 ± 1.6 nM.

On to `Oc1ccc2c3c1O[C@H]1c4[nH]c5c(c4C[C@@]4(O)[C@@H](C2)N(CC2CC2)CC[C@]314)C[C@@]1(O)[C@H]2Cc3ccc(O)c4c3[C@@]1(CCN2CC1CC1)[C@H]5O4` [6, nor-BNI, nor-binaltorphimine, reference compound], for which the Ki at delta opioid receptor [1] (setting [10]) stood at 86 nM; on mu opioid receptor [7], 16.7 nM; on delta opioid receptor [9], 10.2 nM.
